These results are taken from patent US8658646B2, “Pyrrolopyrazine kinase inhibitors” (Hoffmann-LaRoche Inc., priority 2011, dated 2014).

In assay [1] the target is T1, JAK3: Recombinant human kinase domain (Homo sapiens, UniProt P52333).
T1 construct: JAK3: Recombinant human kinase domain from Millipore (Cat #14-629) or prepared; purchased Millipore 14-629
The experiment in a line: Determination of IC50 of Janus Kinase (JAK) inhibition, radioactive end-point 33P-ATP assay, JAK3. The assay is classed as biochemical. The conditions noted are these: ATP 1.5 uM, peptide 50 uM, 20 minutes, read-out: JAK3-INHIB-DR/v1~NO ADDITIVE~Enzyme_Conc = 100.

The target in assay [2] is T2, recombinant human SYK360-635 (Homo sapiens, UniProt P43405).
T2 construct: made in house
The experiment in a line: Determination of IC50 of Spleen Tyrosine Kinase (SYK) inhibition, 33P ATP filtration assay. The assay is classed as biochemical. As to conditions: SYK aa 360-635 0.5 nM; ATP 20 μM, peptide 5 μM, 0.1% BSA; read-out: SYK_ENZYME_FILTRATION/v1, BSA.

The structures appear in SMILES notation. Where “and” joins values, the source holds several entries; their conditions need not be identical. Equal entries are not always repeated.

T1 sequence (P52333 822-1111 limits assumed): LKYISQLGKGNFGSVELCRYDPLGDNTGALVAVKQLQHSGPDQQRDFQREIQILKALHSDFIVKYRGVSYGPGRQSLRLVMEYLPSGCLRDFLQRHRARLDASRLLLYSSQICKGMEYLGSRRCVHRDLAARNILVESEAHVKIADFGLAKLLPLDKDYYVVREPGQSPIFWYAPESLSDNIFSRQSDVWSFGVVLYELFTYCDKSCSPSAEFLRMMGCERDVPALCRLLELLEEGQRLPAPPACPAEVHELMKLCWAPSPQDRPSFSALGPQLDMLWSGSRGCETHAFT

Consider `CC(C)NC(=O)c1c[nH]c2ncc(-c3nn(C)c4ccc(OC(F)(F)F)cc34)nc12` [Example I-281, 2-(1-Methyl-5-trifluoromethoxy-1H-indazol-3-yl)-5H-pyrrolo[2,3-b]pyrazine-7-carboxylic acid isopropylamide], for which the IC50 in assay [1] came to 0.0609 µM; in assay [2] it was 0.0125 µM.

For the compound `CC(C)NC(=O)c1c[nH]c2ncc(-c3nn(C)c4c3CCC4)nc12` [Example I-282, 2-(1-Methyl-1,4,5,6-tetrahydro-cyclopentapyrazol-3-yl)-5H-pyrrolo[2,3-b]pyrazine-7-carboxylic acid isopropylamide], the IC50 worked out at 0.0127 µM in assay [1] and 0.0319 µM in assay [2].

With `CC(C)NC(=O)c1c[nH]c2ncc(-c3nn(C)c4ccc(OC(F)F)cc34)nc12` [Example I-283, 2-(5-Difluoromethoxy-1-methyl-1H-indazol-3-yl)-5H-pyrrolo[2,3-b]pyrazine-7-carboxylic acid isopropylamide], the IC50 in assay [1] stood at 0.0143 µM; in assay [2], 0.0045 µM.

Take `Cn1nc(-c2cnc3[nH]cc(C(=O)NC(C)(C)CO)c3n2)c2cc(OC(F)F)ccc21` [Example I-285, 2-(5-Difluoromethoxy-1-methyl-1H-indazol-3-yl)-5H-pyrrolo[2,3-b]pyrazine-7-carboxylic acid (2-hydroxy-1,1-dimethyl-ethyl)-amide]: the figures for the IC50 in assay [1] and in assay [2] were 0.0825 µM and 0.00458 µM, respectively.

Take `Cn1nc(-c2cnc3[nH]cc(C(=O)NC4(CO)CCOCC4)c3n2)c2cc(OC(F)F)ccc21` [Example I-286, 2-(5-Difluoromethoxy-1-methyl-1H-indazol-3-yl)-5H-pyrrolo[2,3-b]pyrazine-7-carboxylic acid (4-hydroxymethyl-tetrahydro-pyran-4-yl)-amide]: the IC50 in assay [1] amounted to 0.748 µM; in assay [2], 0.0837 µM.

For the compound `CC(C)(C)NC(=O)c1c[nH]c2ncc(-c3nn(CCCN4CC(F)(F)C4)c4ccc(OC(F)F)cc34)nc12` [Example I-296, 2-{1-[3-(3,3-Difluoro-azetidin-1-yl)-propyl]-5-difluoromethoxy-1H-indazol-3-yl}-5H-pyrrolo[2,3-b]pyrazine-7-carboxylic acid tert-butylamide], the IC50 stood at 0.0787 µM in assay [1] and 0.0139 µM in assay [2].

With `CC(C)NC(=O)c1c[nH]c2ncc(-c3nn(Cc4ccon4)c4cc(Cl)ccc34)nc12` [Example I-310, 2-(6-Chloro-1-isoxazol-3-ylmethyl-1H-indazol-3-yl)-5H-pyrrolo[2,3-b]pyrazine-7-carboxylic acid isopropylamide], the IC50 in assay [1] was 0.0314 µM; in assay [2], 0.0353 µM.

For the compound `CC(C)NC(=O)c1c[nH]c2ncc(-c3nn(Cc4nccn4C)c4cc(Cl)ccc34)nc12` [Example I-311, 2-[6-Chloro-1-(1-methyl-1H-imidazol-2-ylmethyl)-1H-indazol-3-yl]-5H-pyrrolo[2,3-b]pyrazine-7-carboxylic acid isopropylamide], the IC50 in assay [1] was found to be 0.00446 µM; in assay [2], 0.0109 µM.

For the compound `Cc1cc(Cn2nc(-c3cnc4[nH]cc(C(=O)NC(C)C)c4n3)c3ccc(Cl)cc32)no1` [Example I-312, 2-[6-Chloro-1-(5-methyl-isoxazol-3-ylmethyl)-1H-indazol-3-yl]-5H-pyrrolo[2,3-b]pyrazine-7-carboxylic acid isopropylamide], the IC50 in assay [1] amounted to 0.00825 µM; in assay [2] it was 0.0736 µM.

Regarding `CN(C)CCn1nc(-c2cnc3[nH]cc(C(=O)NC(C)(C)C)c3n2)c2ccc(F)cc21` [Example I-313, 2-[1-(2-Dimethylamino-ethyl)-6-fluoro-1H-indazol-3-yl]-5H-pyrrolo[2,3-b]pyrazine-7-carboxylic acid tert-butylamide], the IC50 in assay [1] was determined as 0.157 µM; in assay [2] it was 0.046 µM.

As for `CC(C)(C)NC(=O)c1c[nH]c2ncc(-c3ncn4cc(F)ccc34)nc12` [Example I-357, 2-(6-Fluoro-imidazo[1,5-a]pyridin-1-yl)-5H-pyrrolo[2,3-b]pyrazine-7-carboxylic acid tert-butylamide], the values for the IC50 in assay [1] and in assay [2] were 0.0053 µM and 0.0148 µM, respectively.

Regarding `COc1ccc2c(-c3cnc4[nH]cc(C(=O)NC(C)(C)CO)c4n3)nn(C)c2c1` [Example I-365, 2-(6-Methoxy-1-methyl-1H-indazol-3-yl)-5H-pyrrolo[2,3-b]pyrazine-7-carboxylic acid (2-hydroxy-1,1-dimethyl-ethyl)-amide], the results for the IC50 in assay [1] and in assay [2] were 0.0583 µM and 0.00332 µM, respectively.

For `COc1ccc2c(-c3cnc4[nH]cc(C(=O)NC(C)(C)C)c4n3)nn(C)c2c1` [Example I-366, 2-(6-Methoxy-1-methyl-1H-indazol-3-yl)-5H-pyrrolo[2,3-b]pyrazine-7-carboxylic acid tert-butylamide], the IC50 in assay [1] is 0.0637 µM; in assay [2], < 1 nM (2×) and 1.6 nM.

`CCC(C)(C)NC(=O)c1c[nH]c2ncc(-c3nn(C)c4cc(F)ccc34)nc12` [Example I-375, 2-(6-Fluoro-1-methyl-1H-indazol-3-yl)-5H-pyrrolo[2,3-b]pyrazine-7-carboxylic acid (1,1-dimethyl-propyl)-amide]: the values for the IC50 in assay [1] and in assay [2] were 0.0229 µM and 0.00337 µM, respectively.

As to `Cn1nc(-c2cnc3[nH]cc(C(=O)NC(C)(C)C#N)c3n2)c2ccc(F)cc21` [Example I-377, 2-(6-Fluoro-1-methyl-1H-indazol-3-yl)-5H-pyrrolo[2,3-b]pyrazine-7-carboxylic acid (cyano-dimethyl-methyl)-amide], the results for the IC50 in assay [1] and in assay [2] were 0.0054 µM and 0.00455 µM, respectively.

Regarding `Cn1nc(-c2cnc3[nH]cc(C(=O)NC4(C)CC4)c3n2)c2ccc(F)cc21` [Example I-378, 2-(6-Fluoro-1-methyl-1H-indazol-3-yl)-5H-pyrrolo[2,3-b]pyrazine-7-carboxylic acid (1-methyl-cyclopropyl)-amide], the IC50 in assay [1] stood at 0.0128 µM; in assay [2] it was 0.00308 µM.

In the case of `CC(C)(C)NC(=O)c1c[nH]c2ncc(-c3cccc4[nH]ncc34)nc12` [Example I-399, 2-(1H-Indazol-4-yl)-5H-pyrrolo[2,3-b]pyrazine-7-carboxylic acid tert-butylamide], the IC50 was determined as 0.0181 µM in assay [1] and 0.00473 µM in assay [2].
